Assay results: US12661348B2, “Systemic formulation of a pyridinone derivate for TG2-related diseases” (Dr. Falk Pharma GmbH, priority 2020, dated 2026)

Columns and labels:
[1] = tested on: STAM-model in the C57BL/6-mouse; experiment: Stelic animal model (STAM-model) for non-alcoholic steatohepatitis; type: in vivo
Experimental: The anti-fibrotic effect of compound of formula (I) in the liver was investigated in a STAM-model for non-alcoholic steatohepatitis. This model bases on the induction of a chronical fibrotic inflammation of the liver by means of the combination of a chemical noxin (Streptozotocin) and a fat-containing diet in the C57BL/6-mouse. The pathology is similar to the described NASH in human.
Groups of 8 STAM-mice were treated directly over a time period of two weeks with three different dosages of said compound: 100 mg/kg body weight, 300 mg/kg body weight, and 1000 mg/kg body weight. The daily dosage was administered orally as a suspension in two parts at intervals of 8 hours. In a control group, the STAM-mice were treated in same way but merely with the vehicle methyl cellulose. After the end of the treatment, a measurement of the biochemical parameter in the Plasma and after dissection of the animals a histopathological investigation for the liver, the determination of the fat content of the liver as well as the determination of the expression of inflammation and fibrosis marker was performed.

TG2 = biological target: T1, TG2 (Mus musculus, UniProt P21981); experiment: Immune-histochemical localisation of the complex of compound and TG2 in kidney tissue of UUO-mice; type: in vivo, C57BL/6-mouse; settings: oral, different dosages, compound-specific antibody
T1 construct: The immune-histochemical localisation of the complex of compound of formula (I) and TG2 in the kidney tissue; from tissue; host or cells: kidney tissue of UUO C57BL/6 mice
T1 sequence (P21981 1-686): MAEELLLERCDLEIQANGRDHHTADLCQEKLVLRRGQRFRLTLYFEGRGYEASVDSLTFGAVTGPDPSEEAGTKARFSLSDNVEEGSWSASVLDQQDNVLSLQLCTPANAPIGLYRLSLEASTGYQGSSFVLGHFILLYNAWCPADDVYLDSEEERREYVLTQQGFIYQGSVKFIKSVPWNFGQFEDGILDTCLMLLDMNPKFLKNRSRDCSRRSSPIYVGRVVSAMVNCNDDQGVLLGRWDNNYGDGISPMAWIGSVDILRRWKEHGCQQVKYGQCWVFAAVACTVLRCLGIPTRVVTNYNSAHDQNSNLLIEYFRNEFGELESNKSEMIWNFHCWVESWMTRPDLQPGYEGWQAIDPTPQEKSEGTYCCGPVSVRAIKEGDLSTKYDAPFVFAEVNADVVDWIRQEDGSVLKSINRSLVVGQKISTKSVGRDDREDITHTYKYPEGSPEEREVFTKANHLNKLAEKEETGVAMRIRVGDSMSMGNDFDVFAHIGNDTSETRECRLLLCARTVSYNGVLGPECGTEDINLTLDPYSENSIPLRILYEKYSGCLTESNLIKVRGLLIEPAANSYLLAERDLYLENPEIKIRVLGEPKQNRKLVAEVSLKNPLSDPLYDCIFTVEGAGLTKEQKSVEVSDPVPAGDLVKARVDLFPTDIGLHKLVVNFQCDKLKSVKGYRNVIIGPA
Experimental: Groups of 8 UUO-mice were treated directly after ligation of the ureter over a time period of two weeks with three different dosages of said compound: 100 mg/kg body weight, 300 mg/kg body weight, and 1000 mg/kg body weight. The daily dosage was administered orally as a suspension at intervals of 8 hours. In a control group, the UUO-mice were treated in same way but merely with the vehicle methyl cellulose. After the end of the treatment, the histopathological investigation of the kidney tissue as well as the determination of the amount of hydroxyproline in the kidney was performed. Furthermore, an immune-histochemical localisation of the complex of (S,E)-methyl-7-(1-(2-(2-ethylbutylamino)-2-oxoethyl)-2-oxo-1,2-dihydro-pyridin-3-ylamino)-6-(1-methyl-1H-imidazole-5-carboxamido)-7-oxohept-2-enoate and TG2 by means of (S,E)-methyl-7-(1-(2-(2-ethylbutylamino)-2-oxoethyl)-2-oxo-1,2-dihydro-pyridin-3-ylamino)-6-(1-methyl-1H-imidazole-5-carboxamido)-7-oxohept-2-enoate-specific antibody was carried out.

[2] = Pharmacokinetic in the C57BL/6-mouse; type: in vivo; settings: oral suspension
Experimental: The study serves to describe the pharmacokinetics of compound of formula (I) in the C57BL/6-mouse. The dosage was analogous to the dosage in the STAM-model (example 3) or in the UUO-model (example 2) in order to ensure the estimation of the systemic exposition in these models and to correlate the pharmacokinetic data with the efficacy data.
Groups of 12 C57BL/6-mice were treated with three different dosages of compound of formula (I) over a time period of 7 days: 100 mg/kg body weight, 300 mg/kg body weight, and 1000 mg/kg body weight. The daily dosage was administered orally as a suspension in two parts at intervals of 8 hours. On day 7 of treatment three different blood samples per animal were collected. The time points in the group were distributed in such a way that the 24 h-profile was covered with in total 12 different time points (3 animals per time point).
The determination of compound of formula (I) in the blood plasma was performed by means of a previously validated HLPC-MS/MS method.

In the case of `CCC(CC)CNC(=O)Cn1cccc(NC(=O)[C@H](CC/C=C/C(=O)OC)NC(=O)c2cncn2C)c1=O` [compound of formula (I), (S,E)-methyl-7-(1-(2-(2-ethylbutylamino)-2-oxoethyl)-2-oxo-1,2-dihydro-pyridin-3-ylamino)-6-(1-methyl-1H-imidazole-5-carboxamido)-7-oxohept-2-enoate], the liver histology ([1]; 100, 300, 1000 mg/kg body weight daily, oral suspension in two parts, two weeks) is reported as “significant, dosage dependent improvement”, the “fibrotic area in the liver” value ([1]; 100, 300, 1000 mg/kg, significant in the middle and high dosage group) is reported as “marked, dosage dependent reduction” and the liver inflammation ([1]; STAM mice) is reported as “dose-dependent and significant reduction”. For the same compound, the “fat content in the liver” value ([1]; STAM-mice, oral, two weeks) was “no influence”, the “reduction of the fibrosis compared with positive control Telmisartan” value ([1]; high dosage group, comparison with historical data) was “lay in the area of Telmisartan” and the “NAFLD Activity Score (NAS)” value ([1]; middle and high dosage group (300, 1000 mg/kg), mainly reduction of inflammation and ballooning) was “reduced in the middle and high dosage group”. The “immune-histochemical localisation of the complex of compound and TG2 in the kidney tissue” value (TG2) was “reach the target site and inhibits the target molecule” and the “bioavailability in the mouse model” value [2] was “measurable”.
